Assay results as given in PubChem BioAssay (NCI).
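Exposure lasted 48 hours, with cells grown in 96-well plates and compounds tested at five concentrations. TGI: total growth inhibition.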

Tests used:
Assay in all cases: NCI anticancer screen, dose series, 48 h
786-0 renal = system: 786-0 renal
A498 renal = system: A498 renal
A549 NSCLC = system: A549 NSCLC
ACHN renal = system: ACHN renal
BT-549 breast = system: BT-549 breast
CAKI-1 renal = system: CAKI-1 renal
CCRF-CEM leukemia = system: CCRF-CEM leukemia
COLO 205 colon = system: COLO 205 colon
DU-145 prostate = system: DU-145 prostate
EKVX NSCLC = system: EKVX NSCLC
HCC-2998 colon = system: HCC-2998 colon
HCT-116 colon = system: HCT-116 colon
HCT-15 colon = system: HCT-15 colon
HOP-62 NSCLC = system: HOP-62 NSCLC
HOP-92 NSCLC = system: HOP-92 NSCLC
HS 578T breast = system: HS 578T breast
HT29 colon = system: HT29 colon
IGROV1 ovarian = system: IGROV1 ovarian
K-562 leukemia = system: K-562 leukemia
KM12 colon = system: KM12 colon
LOX IMVI melanoma = system: LOX IMVI melanoma
M14 melanoma = system: M14 melanoma
MALME-3M melanoma = system: MALME-3M melanoma
MCF7 breast = system: MCF7 breast
MDA-MB-231 breast = system: MDA-MB-231 breast
MDA-MB-435 = system: MDA-MB-435
MDA-N = system: MDA-N
MOLT-4 leukemia = system: MOLT-4 leukemia
NCI-H226 lung = system: NCI-H226 lung
NCI-H23 lung = system: NCI-H23 lung
NCI-H460 lung = system: NCI-H460 lung
NCI-H522 lung = system: NCI-H522 lung
NCI/ADR-RES ovarian = system: NCI/ADR-RES ovarian
OVCAR-3 ovarian = system: OVCAR-3 ovarian
OVCAR-4 ovarian = system: OVCAR-4 ovarian
OVCAR-5 ovarian = system: OVCAR-5 ovarian
OVCAR-8 ovarian = system: OVCAR-8 ovarian
PC-3 prostate = system: PC-3 prostate
RPMI-8226 leukemia = system: RPMI-8226 leukemia
RXF 393 renal = system: RXF 393 renal
SF-268 CNS = system: SF-268 CNS
SF-295 CNS = system: SF-295 CNS
SF-539 CNS = system: SF-539 CNS
SK-MEL-2 melanoma = system: SK-MEL-2 melanoma
SK-MEL-28 melanoma = system: SK-MEL-28 melanoma
SK-MEL-5 melanoma = system: SK-MEL-5 melanoma
SK-OV-3 ovarian = system: SK-OV-3 ovarian
SN12C renal = system: SN12C renal
SNB-19 CNS = system: SNB-19 CNS
SR leukemia = system: SR leukemia
SW-620 colon = system: SW-620 colon
T-47D breast = system: T-47D breast
TK-10 renal = system: TK-10 renal
U251 CNS = system: U251 CNS
UACC-257 melanoma = system: UACC-257 melanoma
UACC-62 melanoma = system: UACC-62 melanoma
UO-31 renal = system: UO-31 renal

## C/C(N=Nc1nc2ccccc2s1)=C1/C=CC=CN1O
786-0 renal
  TGI: > 100 µM
A498 renal
  TGI: > 100 µM
A549 NSCLC
  TGI: > 100 µM
ACHN renal
  TGI: > 100 µM
BT-549 breast
  TGI: > 100 µM
CAKI-1 renal
  TGI: > 100 µM
CCRF-CEM leukemia
  TGI: > 100 µM
COLO 205 colon
  TGI: > 100 µM
DU-145 prostate
  TGI: > 100 µM
EKVX NSCLC
  TGI: 6.03 µM
HCC-2998 colon
  TGI: 0.0978 µM
HCT-116 colon
  TGI: > 100 µM
HCT-15 colon
  TGI: > 100 µM
HOP-62 NSCLC
  TGI: > 100 µM
HOP-92 NSCLC
  TGI: 60.9 µM
HS 578T breast
  TGI: > 100 µM
HT29 colon
  TGI: > 100 µM
IGROV1 ovarian
  TGI: > 100 µM
K-562 leukemia
  TGI: > 100 µM
KM12 colon
  TGI: > 100 µM
LOX IMVI melanoma
  TGI: > 100 µM
M14 melanoma
  TGI: > 100 µM
MALME-3M melanoma
  TGI: 57.4 µM
MCF7 breast
  TGI: 60.5 µM
MDA-MB-231 breast
  TGI: > 100 µM
MDA-MB-435
  TGI: > 100 µM
MDA-N
  TGI: > 100 µM
MOLT-4 leukemia
  TGI: > 100 µM
NCI-H226 lung
  TGI: > 100 µM
NCI-H23 lung
  TGI: > 100 µM
NCI-H460 lung
  TGI: > 100 µM
NCI-H522 lung
  TGI: 91.6 µM
NCI/ADR-RES ovarian
  TGI: 98.1 µM
OVCAR-3 ovarian
  TGI: 71.2 µM
OVCAR-4 ovarian
  TGI: > 100 µM
OVCAR-5 ovarian
  TGI: 5.95 µM
OVCAR-8 ovarian
  TGI: > 100 µM
PC-3 prostate
  TGI: > 100 µM
RPMI-8226 leukemia
  TGI: > 100 µM
RXF 393 renal
  TGI: > 100 µM
SF-268 CNS
  TGI: > 100 µM
SF-295 CNS
  TGI: 3.72 µM
SF-539 CNS
  TGI: > 100 µM
SK-MEL-2 melanoma
  TGI: > 100 µM
SK-MEL-28 melanoma
  TGI: > 100 µM
SK-MEL-5 melanoma
  TGI: > 100 µM
SK-OV-3 ovarian
  TGI: > 100 µM
SN12C renal
  TGI: > 100 µM
SNB-19 CNS
  TGI: > 100 µM
SR leukemia
  TGI: > 100 µM
SW-620 colon
  TGI: > 100 µM
T-47D breast
  TGI: > 100 µM
TK-10 renal
  TGI: 61.3 µM
U251 CNS
  TGI: > 100 µM
UACC-257 melanoma
  TGI: > 100 µM
UACC-62 melanoma
  TGI: > 100 µM
UO-31 renal
  TGI: > 100 µM
